We go through 2 molecules from paper PMC4666356 (2015).

Assay [1] deals with mt6363 (DNA, G4) AGGGACGCGGGCGGGGGATATAGGGT
Put plainly: CD melting at 265 nm. Particulars: 20 mM K+; 4 uM DNA, 8 uM compound.

The subject of assay [2] is mt1015 (DNA, G4) GGGCTTGATGTGGGGAGGGGTGTTTAAGGG
Put plainly: fluorescence lifetime. Particulars: qualitative; decay time ~3.3 ns.

`C[n+]1ccccc1/C=C/c1ccc2c(c1)c1cc(/C=C/c3cccc[n+]3C)ccc1n2CCCCCCCCCCCC[N+]1(C)CCCCC1`: the dTm in assay [1] was ~ 30 °C. For the same molecule, in assay [2], the binding entry is on record as “yes”. Take `C[n+]1ccccc1/C=C/c1ccc2c(c1)c1cc(/C=C/c3cccc[n+]3C)ccc1n2CCCCCC[N+]1(C)CCCCC1`: the dTm in assay [1] is ~ 30 °C.
